Measurements: patent US20230172899A1, “CANNABINOID COMPOSITIONS” (priority 2020, published 2023)
Values after ≈ are worked out from the molar mass of the structure shown. Like-named read-outs stand apart in the source and are kept apart here.

Assays:
[1] = test system: store-operated calcium entry (SOCE) in U937 monocytes; assay: SOCE inhibition, Fura-2 Ca2+ bioassay, thapsigargin-induced, U937 cells; assay type: cell-based, human; details: Homo sapiens
[2] = test system: store-operated calcium entry (SOCE) in THP-1 cells; assay: SOCE inhibition, combinatory (isobolographic) analysis, THP-1 cells; assay type: cell-based, human; details: 10 μM cannabinoid plus 2.2 μM CBGA
[3] = test system: store-operated calcium entry (SOCE) in Jurkat T cells; assay: SOCE inhibition, Fura-2 Ca2+ bioassay, thapsigargin-induced, Jurkat cells; assay type: cell-based, human; details: for IC50: Homo sapiens, Jurkat; for IC50 on SOCE relative to acidic variations: dose response 0 to 30 μM; for Combinatory effect on SOCE inhibition when paired with CBGA: isobolographic analysis, pairs expected to inhibit 50%
[4] = test system: store-operated calcium entry (SOCE) in Luva human mast cells; assay: SOCE inhibition, Fura-2 Ca2+ bioassay, thapsigargin-induced, Luva cells; assay type: cell-based; details: Homo sapiens, Mast cell, read-out: IC50 SOCE Luva
[5] = test system: store-operated calcium entry (SOCE) in HEK293 cells; assay: SOCE inhibition, Fura-2 Ca2+ bioassay, thapsigargin-induced, HEK293 cells; assay type: cell-based, human; details: for IC50: Homo sapiens
[6] = test system: store-operated calcium entry (SOCE) in RBL-2H3 rat mast cells; assay: SOCE inhibition, Fura-2 Ca2+ bioassay, thapsigargin-induced, RBL-2H3 cells; assay type: cell-based; details: Rattus norvegicus
[7] = test system: store-operated calcium entry (SOCE) in THP-1 cells; assay: SOCE inhibition, combinatory (isobolographic) analysis, THP-1 cells; assay type: cell-based, human; details: for IC50: Homo sapiens, THP-1, read-out: SOCE IC50
Description: Bar graphs shown in FIGS. 10A-10Z and 10BB display SOCE amplitudes calculated from area under the curve (AUC) of the SOCE signals and normalized to SOCE in the presence of gadolinium. Combinatory effects were assessed using an isobolographic analysis approach, where CBGA was paired with another cannabinoid using concentrations of CBGA corresponding to 50%, 40%, 30%, 20%, 10%, and 0% inhibition (as derived from the IC50 curves of FIGS. 9A-9P) and combined with concentrations of the paired cannabinoid, so that each combination would be expected to inhibit 50% of the Ca^2+ signal (e.g., the CBGA concentration causing 50% inhibition was tested alone without the other cannabinoid, the CBGA concentration expected to block 40% of the signal was combined with the concentration of the other cannabinoid expected to inhibit 10%, the CBGA concentration expected to block 30% of the signal was combined with the concentration of the other cannabinoid expected to inhibit 20%, and so on). Simple additivity of cannabinoid pairs would be expected to inhibit the Ca^2+ signal by 50%. All the data in these experiments represent an average of 3 independent runs and the values are graphed as mean values±SEM.

CRAC channels (ICRAC) = assay: Whole-cell patch clamp of IP3-induced ICRAC in Jurkat cells; assay type: cell-based, human; details: 10 μM, 50 μM IP3, −120 mV
Description: The ability of CBGA to inhibit store-operated calcium entry (SOCE) within cells was experimentally interrogated (see FIG. 12). Jurkat cells were perfused with 50 μM IP3 to induce store depletion and activation of CRAC channels (the resulting Ca^2+ inward current is known as ICRAC). ICRAC is a long-lasting inward current at −120 mV membrane potential (black trace) that can be blocked by 10 μM CBGA (gray trace).
(§1) Inward CRAC currents were induced at −120 mV (gray trace) and outward currents at +40 mV (black trace, where CRAC currents reverse and are essentially absent). At the +40 mV voltage potential, TRPM7 channels produce monovalent outward currents. Perfusion of 50 μM IP3 activates ICRAC at −120 mV as above and the removal of intracellular ATP slowly activates TRPM7 current at +40 mV. Application of 10 μM CBGA blocks both outward TRPM7 and inward CRAC currents (see FIG. 13, black and gray traces, respectively). Without being bound by theory, CBGA may also block TRPM7's kinase activity, similar to other TRPM7 blockers such as NS8593.

TRPM7 [8] = target: T1, TRPM7 (Homo sapiens, UniProt Q96QT4); assay: Whole-cell patch clamp of TRPM7 outward current in Jurkat cells; assay type: cell-based; parameters: endogenous in cells; host or cells: Jurkat; details: 10 μM, +40 mV, removal of intracellular ATP
Description: as §1
Target sequence in this assay (Q96QT4 whole entry): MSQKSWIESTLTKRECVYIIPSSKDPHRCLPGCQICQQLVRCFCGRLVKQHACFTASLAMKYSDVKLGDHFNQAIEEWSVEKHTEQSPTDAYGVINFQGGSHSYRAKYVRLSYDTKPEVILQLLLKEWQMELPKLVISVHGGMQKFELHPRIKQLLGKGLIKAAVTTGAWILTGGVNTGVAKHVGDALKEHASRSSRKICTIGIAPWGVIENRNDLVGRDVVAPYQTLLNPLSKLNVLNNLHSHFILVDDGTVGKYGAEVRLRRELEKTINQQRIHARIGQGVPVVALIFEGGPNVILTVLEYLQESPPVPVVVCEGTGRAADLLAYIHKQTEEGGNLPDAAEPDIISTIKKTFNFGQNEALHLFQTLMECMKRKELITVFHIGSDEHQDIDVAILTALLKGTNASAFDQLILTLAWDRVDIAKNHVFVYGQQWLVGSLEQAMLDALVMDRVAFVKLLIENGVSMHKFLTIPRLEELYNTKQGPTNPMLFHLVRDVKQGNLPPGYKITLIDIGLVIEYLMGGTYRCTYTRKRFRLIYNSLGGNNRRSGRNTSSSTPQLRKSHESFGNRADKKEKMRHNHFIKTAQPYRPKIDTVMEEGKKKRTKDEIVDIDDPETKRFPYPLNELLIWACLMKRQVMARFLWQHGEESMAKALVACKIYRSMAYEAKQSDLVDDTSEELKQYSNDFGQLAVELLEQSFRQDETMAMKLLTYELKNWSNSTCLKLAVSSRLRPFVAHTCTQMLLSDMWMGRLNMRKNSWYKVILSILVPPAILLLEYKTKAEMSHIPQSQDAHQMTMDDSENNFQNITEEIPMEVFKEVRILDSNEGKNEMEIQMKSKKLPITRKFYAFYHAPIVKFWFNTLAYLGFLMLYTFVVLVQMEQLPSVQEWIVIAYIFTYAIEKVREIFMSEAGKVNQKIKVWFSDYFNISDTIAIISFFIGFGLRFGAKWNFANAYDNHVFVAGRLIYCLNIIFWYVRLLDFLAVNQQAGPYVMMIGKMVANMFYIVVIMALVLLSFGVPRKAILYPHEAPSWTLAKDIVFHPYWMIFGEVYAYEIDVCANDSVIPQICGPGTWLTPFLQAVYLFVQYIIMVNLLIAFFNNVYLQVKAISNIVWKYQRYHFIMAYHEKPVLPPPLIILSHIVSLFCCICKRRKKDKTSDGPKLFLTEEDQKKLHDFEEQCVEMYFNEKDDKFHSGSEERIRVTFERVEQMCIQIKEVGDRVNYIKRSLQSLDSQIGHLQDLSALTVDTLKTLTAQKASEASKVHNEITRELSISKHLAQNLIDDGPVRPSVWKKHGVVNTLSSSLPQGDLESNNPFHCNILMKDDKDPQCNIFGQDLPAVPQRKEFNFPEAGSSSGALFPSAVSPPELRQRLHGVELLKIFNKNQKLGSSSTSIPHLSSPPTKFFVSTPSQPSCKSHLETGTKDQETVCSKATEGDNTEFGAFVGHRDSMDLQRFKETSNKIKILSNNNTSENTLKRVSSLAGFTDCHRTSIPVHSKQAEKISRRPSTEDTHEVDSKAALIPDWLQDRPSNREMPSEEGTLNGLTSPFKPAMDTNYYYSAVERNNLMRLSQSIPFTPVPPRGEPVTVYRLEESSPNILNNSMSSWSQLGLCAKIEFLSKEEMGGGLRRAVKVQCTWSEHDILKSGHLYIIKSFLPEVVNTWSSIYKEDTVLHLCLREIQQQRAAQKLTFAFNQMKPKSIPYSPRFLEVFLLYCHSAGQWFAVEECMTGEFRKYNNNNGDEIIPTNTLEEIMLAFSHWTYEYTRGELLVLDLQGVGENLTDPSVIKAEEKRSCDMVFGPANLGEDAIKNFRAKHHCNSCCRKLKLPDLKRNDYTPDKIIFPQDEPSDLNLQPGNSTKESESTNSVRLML

TRPM7 [9] = target: T1, TRPM7; assay: Whole-cell patch clamp of TRPM7 over-expressed in HEK293 cells; assay type: cell-based; parameters: expressed in transfected cells; host or cells: HEK293; details: HEK293 over-expressing TRPM7; 1, 3, 10 or 30 μM; +40 mV; 0 ATP, 0 Mg2+
Description: Activation of TRPM7 over-expressed in HEK293 cells by perfusing the cells with intracellular solution containing 0 ATP and 0 Mg^2+, resulting in fast and maximal activation of TRPM7 outward currents at +40 mV is shown in FIG. 14.
Data from dose-response curves for the inhibition of TRPM7 currents (dark gray symbols) obtained in experiments shown in FIG. 14 and SOCE-mediated increases in intracellular Ca^2+ (light gray symbols) are shown in FIG. 15.
Target sequence in this assay (Q96QT4 whole entry, species assumed): as the sequence (Q96QT4 whole entry) above

[10] = test system: store-operated calcium entry (SOCE) in various cell types; assay: Thapsigargin-induced SOCE Fura-2 bioassay across various cell types; assay type: cell-based; details: 1 μM; positive control; Jurkat, U937, Luva, RBL-2H3, HL-60, HEK-293
Description: A Fura-2 calcium flux assay was used to determine cytoplasmic Ca^2+ levels. Briefly, cells were preloaded with Fura-2 AM, and fluorescence intensity in cells intensity was measured over time as a ratio of detected 510 nm fluorescent light emission intensity when excited by UV light at 340 nm and 380 nm wavelengths (f340/f380 ratio). Gadolinium (Gd^3+) is known to block SOCE at a concentration of 1 μM and was used at 1 μM as a positive control in these experiments (gray line).
FIGS. 11TT-11-XX show dose-response curves for hemp varieties on store-operated calcium entry (SOCE) induced by thapsigargin in HEK-293, Jurkat, U937, LUVA, and RBL-2H3 cells. Hemp extracts (cold extracted and unheated) were tested at 6 different doses from 1 to 50 μg/ml. The effects on SOCE amplitude were plotted in a dose-dependent manner to determine the IC50 for each tested compound (see Table 6 for determined IC50 values). All data are averages of three independent runs±SEM. Tested hemp varieties were: Otto-18, Harlequin (HAR), and BOAX.
The general extraction method of Example 6 was carried out, and hemp extracts were subjected to heat treatment prior to testing for activity in the SOCE assay. In some instances, unheated and heated hemp extracts were combined prior to activity testing in the SOCE assay.

[11] = U-937, read-out: IC50 SOCE U937, Table 5, individual cannabinoids, U937
[12] = read-out: IC50 SOCE Jurkat, Table 5, individual cannabinoids
[13] = HEK293, read-out: IC50 SOCE HEK-293, Table 5, individual cannabinoids, HEK-293
[14] = RBL-2H3, read-out: IC50 SOCE RBL-2H3, Table 5, individual cannabinoids, RBL-2H3
[15] = U-937, read-out: IC50 SOCE U937

SMILES | IC50 [1, 11] | Combinatory effect when paired with 2.2 μM CBGA [2] | IC50 [3, 12] | Combinatory effect on SOCE inhibition when paired with CBGA ([3]; Jurkat cells) | IC50 [4] | IC50 [5, 13] | IC50 [6, 14] | IC50 [7] | further results
CCCCCc1cc(O)c(C/C=C(\C)CCC=C(C)C)c(O)c1 [CBG, (E)-2-(3,7-dimethylocta-2,6-dien-1-yl)-5-pentylbenzene-1,3-diol] | 33.5 µg/mL (≈ 106 µM) | simple additive agonists | 2.36 µg/mL | stronger than predicted inhibitions | 33.6 µg/mL (≈ 106 µM) | > 50 µg/mL | 3.29 µg/mL (≈ 10.4 µM) | > 30 µM | IC50 on SOCE relative to acidic variations ([3]; Jurkat cells): higher IC50 than their acidic variations
CCCCCc1cc(O)c(C/C=C(\C)CCC=C(C)C)c(O)c1C(=O)O [CBGA, (E)-3-(3,7-dimethylocta-2,6-dien-1-yl)-2,4-dihydroxy-6-pentylbenzoic acid] | 2.23 µg/mL (≈ 6.19 µM) | – | 0.53 µg/mL | – | 2.21 µg/mL (≈ 6.13 µM) | 5.72 µg/mL (≈ 15.9 µM) | 0.27 µg/mL (≈ 0.749 µM) | ~2.2 µM | IC50 ([3]; read-out: IC50 inhibition of SOCE-mediated increases in intracellular Ca2+, FIG. 15, cell type not stated there): ~2 µM; Block of inward CRAC current (ICRAC) (CRAC channels (ICRAC)): completely blocks; Block of outward TRPM7 current (TRPM7 [8]): blocks; Inhibitory effect in immune cells compared with non-immune HEK293 cells ([5]; Jurkat vs HEK293 screening, 10 μM): more potent; Block of TRPM7 current (TRPM7 [9]): dose-dependent block
CCCCCc1cc2c(c(O)c1C(=O)O)[C@@H]1C=C(C)CC[C@H]1C(C)(C)O2 [THCA, (6aR,10aR)-1-hydroxy-6,6,9-trimethyl-3-pentyl-6a,7,8,10a-tetrahydro-6H-benzo[c]chromene-2-carboxylic acid] | 8.1 µg/mL (≈ 22.6 µM) | – | 2.23 µg/mL | Simple additive behavior | 10.4 µg/mL (≈ 29 µM) | 17.5 µg/mL (≈ 48.9 µM) | 0.57 µg/mL (≈ 1.59 µM) | – | Combinatory effect on SOCE inhibition when paired with CBGA ([7]; THP-1 cells, isobolographic analysis, pairs expected to inhibit 50%): sub-additive combinatory effects
CCCc1cc(O)c(C/C=C(\C)CCC=C(C)C)c(O)c1 [CBGV, (E)-2-(3,7-dimethylocta-2,6-dien-1-yl)-5-propylbenzene-1,3-diol] | – | simple additive agonists | – | stronger than predicted inhibitions | 40.7 µg/mL (≈ 141 µM) | – | – | > 30 µM | IC50 [1, 15]: 14.5 µg/mL (≈ 50.3 µM); IC50 ([3]; read-out: IC50 SOCE Jurkat): 5.27 µg/mL; IC50 ([5]; HEK293, read-out: IC50 SOCE HEK-293): 30.9 µg/mL (≈ 107 µM); IC50 ([6]; RBL-2H3, read-out: IC50 SOCE RBL-2H3): 6.46 µg/mL (≈ 22.4 µM)
CCCCCc1cc(O)c2c(c1)OC(C)(C)c1ccc(C)cc1-2 [CBN, 6,6,9-trimethyl-3-pentyl-6H-benzo[c]chromen-1-ol] | 45.3 µg/mL (≈ 146 µM) | simple additive agonists | 9.09 µg/mL | Simple additive behavior | > 50 µg/mL | 42.6 µg/mL (≈ 137 µM) | 33.4 µg/mL (≈ 108 µM) | > 30 µM | –
CCCCCc1cc(O)c2c(c1)OC(C)(C)[C@@H]1CC=C(C)C[C@@H]21 [Δ8-THC, (6aR,10aR)-6,6,9-trimethyl-3-pentyl-6a,7,10,10a-tetrahydro-6H-benzo[c]chromen-1-ol] | > 50 µg/mL | sub-additive | 14.2 µg/mL | inhibit less than predicted | > 50 µg/mL | > 50 µg/mL | 39.7 µg/mL (≈ 126 µM) | > 30 µM | –
C=C(C)[C@@H]1CCC(C)=C[C@H]1c1c(O)cc(CCCCC)cc1O [CBD, (1′R,2′R)-5′-methyl-4-pentyl-2′-(prop-1-en-2-yl)-1′,2′,3′,4′-tetrahydro-[1,1′-biphenyl]-2,6-diol] | – | sub-additive | – | Simple additive behavior | > 50 µg/mL | > 50 µg/mL | 2.53 µg/mL (≈ 8.05 µM) | > 30 µM | IC50 [1, 15]: > 50 µg/mL; IC50 ([3]; read-out: IC50 SOCE Jurkat): 7.42 µg/mL; Effect on SOCE (Ca2+ signals), pure compounds ([3]; Jurkat cells, compounds at 10 μM, 1 μM thapsigargin): low to no effects; IC50 on SOCE relative to acidic variations ([3]; Jurkat cells): higher IC50 than their acidic variations
[Cl][Gd]([Cl])[Cl] [Gd^3+, Gadolinium Chloride] | – | – | – | – | – | – | – | – | Effect on thapsigargin-induced SOCE (f340/f380 ratio) [10]: inhibited SOCE
